Measurements: ChEMBL document CHEMBL3868607, “Development of a novel series of non-natural triaryl agonists and antagonists of the Pseudomonas aeruginosa LasR quorum sensing receptor” (Bioorg Med Chem, 2017)
Activity calls are given as the source filed them. The rule behind the calls is not given here.

Legend:
Pseudomonas aeruginosa [1] = assay: Agonist activity at Pseudomonas aeruginosa GFP-fused LasR expressed in Escherichia coli BL21(DE3) at 50 uM after 4 to 6 hrs by fluorescence assay relative to 3-oxo-C12 HSL
[2] = Agonist activity at Pseudomonas aeruginosa GFP-fused LasR expressed in Escherichia coli BL21(DE3) after 4 to 6 hrs by fluorescence assay
Pseudomonas aeruginosa [3] = assay: Antagonist activity at Pseudomonas aeruginosa GFP-fused LasR expressed in Escherichia coli BL21(DE3) at 50 uM after 4 to 6 hrs by fluorescence assay relative to (S)-2-(4-bromophenyl)-N-(2-oxotetrahydrofuran-3-yl) acetamide
[4] = Antagonist activity at Pseudomonas aeruginosa GFP-fused LasR expressed in Escherichia coli BL21(DE3) after 4 to 6 hrs by fluorescence assay
Pseudomonas aeruginosa [5] = assay: Irreversible inhibition of Pseudomonas aeruginosa GFP-fused LasR expressed in Escherichia coli BL21(DE3) at 50 uM after 4 to 6 hrs by fluorescence assay
[6] = Antagonist activity at Pseudomonas aeruginosa LasR expressed in Escherichia coli DH5alpha after 4 to 6 hrs by beta-galactosidase reporter gene assay

SMILES	Emax (Pseudomonas aeruginosa [1]) [%]	EC50 [2] [nM]	Imax (Pseudomonas aeruginosa [3]) [%]	IC50 [4] [nM]	inhibition (Pseudomonas aeruginosa [5])	IC50 [6] [nM]
O=C(Cc1cc(Br)cc(Br)c1OC(=O)c1ccc(Cl)cc1)Nc1ccccc1[N+](=O)[O-]	0	< 50000				
CCCCCCCCCC(=O)CC(=O)N[C@H]1CCOC1=O		64700 to 72900				
O=C(Cc1cc(Br)cc(Br)c1OC(=O)c1cccc(Br)c1)Nc1ccccc1[N+](=O)[O-]	44	< 50000				
O=C(Cc1cc(Br)cc(Br)c1OC(=O)c1ccccc1I)Nc1ccccc1[N+](=O)[O-]	50	1580				
Cc1ccccc1C(=O)Oc1c(Br)cc(Br)cc1CC(=O)Nc1ccccc1[N+](=O)[O-]	85	757				
O=C(Cc1cc(Br)cc(Br)c1OC(=O)c1ccccc1[N+](=O)[O-])Nc1ccccc1[N+](=O)[O-]	37	489				
O=C(Cc1cc(Br)cc(Br)c1OC(=O)c1ccc(Br)cc1)Nc1ccccc1[N+](=O)[O-]	35	< 50000				
O=C(Cc1cc(Br)cc(Br)c1OC(=O)CCN1C(=O)C=CC1=O)N[C@H]1CCOC1=O			115	23800	Active	
O=C(Cc1cc(Br)cc(Br)c1OC(=O)c1ccccc1Cl)Nc1ccncn1	92	601	0	> 100000		
O=C(Oc1c(Br)cc(Br)cc1CNC(=O)c1cccc(F)c1F)c1ccccc1Cl	0	> 50000	80	64500		
O=C(Cc1cc(Br)cc(Br)c1OC(=O)c1ccccc1F)Nc1ccccc1[N+](=O)[O-]	76	1290				
O=C(Cc1cc(Br)cc(Br)c1OC(=O)c1ccc(F)cc1)Nc1ccccc1[N+](=O)[O-]	39	< 50000				
O=C(NCc1cc(Br)cc(Br)c1OC(=O)c1ccccc1Cl)c1ccncn1	90	1630	0	> 100000		
O=C(Cc1cc(Br)cc(Br)c1OC(=O)c1ccccc1)Nc1ccccc1[N+](=O)[O-]	0	< 50000				
O=C(Cc1ccc(Br)cc1)N[C@H]1CCOC1=O						26300
O=C(Cc1cc(Br)cc(Br)c1OC(=O)c1ccccc1Cl)Nc1ccc([N+](=O)[O-])cc1	0	< 50000				
O=C(NCc1cc(Br)cc(Br)c1OC(=O)c1ccccc1Cl)c1ccccn1	0	> 50000	105	79300		
Cc1ccc(C(=O)Oc2c(Br)cc(Br)cc2CC(=O)Nc2ccccc2[N+](=O)[O-])cc1	33	< 50000				
Cc1cccc(C(=O)Oc2c(Br)cc(Br)cc2CC(=O)Nc2ccccc2[N+](=O)[O-])c1	24	< 50000				
O=C(Cc1cc(Br)cc(Br)c1OC(=O)CCCN1C(=O)C=CC1=O)N[C@H]1CCOC1=O			109	> 100000	Active	
O=C(Cc1cc(Br)cc(Br)c1OC(=O)c1ccccc1Cl)Nc1ccccn1	0	< 50000	122	42000		
O=C(Cc1cc(Br)cc(Br)c1OC(=O)c1ccccc1Cl)Nc1cccc([N+](=O)[O-])c1	0	< 50000				
O=C(Cc1cc(Br)cc(Br)c1OC(=O)c1cccc(Cl)c1)Nc1ccccc1[N+](=O)[O-]	0	< 50000				
O=C(CCCN1C(=O)C=CC1=O)Oc1c(Br)cc(Br)cc1CNC(=O)c1ccccn1			116	76800	Active	

The next lines start with the values.

Emax (Pseudomonas aeruginosa [1]) [%]	EC50 [2] [nM]	Imax (Pseudomonas aeruginosa [3]) [%]	IC50 [4] [nM]	inhibition (Pseudomonas aeruginosa [5])	IC50 [6] [nM]	SMILES
31	0.488	0	> 100000			O=C(NCc1cc(Br)cc(Br)c1OC(=O)c1ccccc1Cl)c1cccnc1
64	436					O=C(Cc1cc(Br)cc(Br)c1OC(=O)c1ccc(F)cc1Br)Nc1ccccc1[N+](=O)[O-]
105	0.896					O=C(Cc1cc(Br)cc(Br)c1OC(=O)c1ccccc1Cl)N[C@H]1CCOC1=O
82	271					O=C(Cc1cc(Br)cc(Br)c1OC(=O)c1ccccc1Br)Nc1ccccc1[N+](=O)[O-]
112	446					O=C(Cc1cc(Br)cc(Br)c1OC(=O)c1ccccc1Cl)Nc1ccncc1[N+](=O)[O-]
116	45.6	0	> 100000			O=C(Cc1cc(Br)cc(Br)c1OC(=O)c1ccccc1Cl)Nc1cccc(F)c1F
89	335					O=C(Cc1cc(Br)cc(Br)c1OC(=O)c1ccccc1Cl)Nc1cc(F)c(F)cc1[N+](=O)[O-]
45	246					COc1ccccc1C(=O)Oc1c(Br)cc(Br)cc1CC(=O)Nc1ccccc1[N+](=O)[O-]
56	161					O=C(Cc1cc(Br)cc(Br)c1OCc1c(Cl)cccc1Cl)Nc1ccccc1[N+](=O)[O-]
105	372					O=C(Cc1cc(Br)cc(Br)c1OC(=O)c1ccccc1Cl)Nc1ccccc1[N+](=O)[O-]
95	313					O=C(Cc1cc(Br)cc(Br)c1OC(=O)c1c(Cl)cccc1Cl)Nc1ccccc1[N+](=O)[O-]
